From US7671061B2, “Methods and compositions for treating pain” (Hydra Biosciences, Inc., priority 2005, dated 2010)
Where two headings read alike, the source gives them in different places.

Tests used:
hTRPA1 = target: T1, hTRPA1 (Homo sapiens, UniProt O75762, K186N); test: TRPA1 patch clamp (perforated patch, AITC-activated current); assay type: cell-based
T1 construct: expressed in transfected cells; host or cells: HEK293/TREx (Invitrogen), induced with tetracycline
Method in brief: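 HEK293 TREx cells expressing the channel were recorded by amphotericin perforated patch at −40 mV holding, with 400 ms ramps from −120 to +100 mV every 5 s. Current was activated with 5 μM AITC in pH 7.4 external solution, and block of inward and outward current was measured at −80 and +80 mV with AITC still present.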

hNaV1.2 = hNaV1.2 (Homo sapiens, UniProt Q99250); test: hNaV1.2 patch clamp (Qpatch) selectivity; assay type: cell-based; settings: Table 2
hNaV1.2, sequence (Q99250 whole entry): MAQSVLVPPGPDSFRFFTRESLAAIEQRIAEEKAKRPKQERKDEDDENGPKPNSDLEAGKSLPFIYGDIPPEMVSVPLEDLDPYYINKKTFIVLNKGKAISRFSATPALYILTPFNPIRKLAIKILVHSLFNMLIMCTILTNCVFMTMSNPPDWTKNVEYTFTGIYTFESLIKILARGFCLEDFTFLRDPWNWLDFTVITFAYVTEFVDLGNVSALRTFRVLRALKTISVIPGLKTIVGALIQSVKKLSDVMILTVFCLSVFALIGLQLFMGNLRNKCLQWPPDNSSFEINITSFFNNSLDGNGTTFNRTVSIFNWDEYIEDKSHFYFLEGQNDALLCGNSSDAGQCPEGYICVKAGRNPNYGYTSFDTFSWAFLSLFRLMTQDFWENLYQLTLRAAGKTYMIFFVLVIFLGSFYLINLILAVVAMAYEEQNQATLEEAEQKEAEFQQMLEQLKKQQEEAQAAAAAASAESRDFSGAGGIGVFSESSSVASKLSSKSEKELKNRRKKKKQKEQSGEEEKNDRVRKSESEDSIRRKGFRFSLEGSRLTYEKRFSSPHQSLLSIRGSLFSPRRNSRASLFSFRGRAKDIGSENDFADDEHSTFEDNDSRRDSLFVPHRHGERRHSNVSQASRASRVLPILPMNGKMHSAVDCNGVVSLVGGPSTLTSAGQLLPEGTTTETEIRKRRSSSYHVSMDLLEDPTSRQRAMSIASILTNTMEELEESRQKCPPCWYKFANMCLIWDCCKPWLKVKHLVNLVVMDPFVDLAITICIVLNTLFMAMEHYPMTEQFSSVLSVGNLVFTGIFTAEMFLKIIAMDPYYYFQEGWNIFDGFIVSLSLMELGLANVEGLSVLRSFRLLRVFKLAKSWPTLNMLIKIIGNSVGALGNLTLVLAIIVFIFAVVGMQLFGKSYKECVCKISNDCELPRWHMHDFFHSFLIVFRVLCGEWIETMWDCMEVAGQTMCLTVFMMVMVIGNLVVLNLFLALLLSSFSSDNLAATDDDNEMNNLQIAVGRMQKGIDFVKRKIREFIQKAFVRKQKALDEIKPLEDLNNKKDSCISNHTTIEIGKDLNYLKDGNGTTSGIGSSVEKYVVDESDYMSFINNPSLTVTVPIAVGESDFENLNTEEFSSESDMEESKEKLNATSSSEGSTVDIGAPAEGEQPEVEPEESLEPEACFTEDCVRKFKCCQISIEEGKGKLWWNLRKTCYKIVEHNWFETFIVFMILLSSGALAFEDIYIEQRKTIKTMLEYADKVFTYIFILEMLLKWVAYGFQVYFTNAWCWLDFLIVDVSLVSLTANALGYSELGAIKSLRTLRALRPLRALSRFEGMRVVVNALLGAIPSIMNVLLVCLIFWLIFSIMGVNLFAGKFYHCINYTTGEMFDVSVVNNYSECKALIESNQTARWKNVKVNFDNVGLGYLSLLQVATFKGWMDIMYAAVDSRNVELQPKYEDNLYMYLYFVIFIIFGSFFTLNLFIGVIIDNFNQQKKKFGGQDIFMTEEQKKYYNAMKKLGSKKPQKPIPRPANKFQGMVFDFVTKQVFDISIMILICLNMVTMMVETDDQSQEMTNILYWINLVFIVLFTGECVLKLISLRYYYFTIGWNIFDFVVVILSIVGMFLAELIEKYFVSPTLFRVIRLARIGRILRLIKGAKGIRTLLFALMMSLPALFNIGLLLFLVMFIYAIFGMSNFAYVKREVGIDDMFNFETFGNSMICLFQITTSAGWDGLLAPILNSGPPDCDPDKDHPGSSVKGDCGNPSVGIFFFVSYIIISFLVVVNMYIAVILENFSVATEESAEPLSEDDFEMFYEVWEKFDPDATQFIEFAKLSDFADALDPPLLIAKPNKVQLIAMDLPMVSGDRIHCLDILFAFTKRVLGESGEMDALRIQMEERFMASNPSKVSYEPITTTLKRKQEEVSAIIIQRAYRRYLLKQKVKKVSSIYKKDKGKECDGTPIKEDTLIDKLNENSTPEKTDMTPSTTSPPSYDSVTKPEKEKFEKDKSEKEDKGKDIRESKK

hTRPV3 = target: T2, hTRPV3 (Homo sapiens, UniProt Q8NET8); test: hTRPV3 patch clamp selectivity; assay type: cell-based; settings: Table 2
T2 sequence (Q8NET8 1-790): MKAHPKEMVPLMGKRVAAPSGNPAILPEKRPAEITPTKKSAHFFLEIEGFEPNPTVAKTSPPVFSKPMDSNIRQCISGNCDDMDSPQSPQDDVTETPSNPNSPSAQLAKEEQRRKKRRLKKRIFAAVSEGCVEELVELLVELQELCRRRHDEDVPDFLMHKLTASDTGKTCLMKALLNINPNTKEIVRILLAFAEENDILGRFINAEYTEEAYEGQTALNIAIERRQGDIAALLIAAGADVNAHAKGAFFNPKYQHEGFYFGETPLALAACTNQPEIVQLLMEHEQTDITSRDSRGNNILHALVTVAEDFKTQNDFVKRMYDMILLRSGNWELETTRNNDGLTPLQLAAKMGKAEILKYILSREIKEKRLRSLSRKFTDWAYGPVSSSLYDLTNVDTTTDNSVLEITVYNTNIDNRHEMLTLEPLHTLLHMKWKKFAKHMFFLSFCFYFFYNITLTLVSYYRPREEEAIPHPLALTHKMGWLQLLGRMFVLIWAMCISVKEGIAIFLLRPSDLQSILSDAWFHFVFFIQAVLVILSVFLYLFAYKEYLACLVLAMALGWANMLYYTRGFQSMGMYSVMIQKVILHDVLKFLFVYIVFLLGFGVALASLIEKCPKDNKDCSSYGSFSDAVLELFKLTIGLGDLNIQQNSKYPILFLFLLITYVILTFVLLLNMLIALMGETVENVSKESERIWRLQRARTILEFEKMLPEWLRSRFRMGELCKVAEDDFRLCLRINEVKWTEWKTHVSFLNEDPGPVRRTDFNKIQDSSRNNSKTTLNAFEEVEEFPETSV

[1] = Plasma levels / pharmacokinetics in male Sprague-Dawley rat; assay type: in vivo
Experimental: Compound 200 plasma levels were determined via HPLC/MS/MS following a single intravenous bolus dose of 0.9 mg/kg, an intraperitoneal dose of 12 mg/kg (suspension), and an oral dose of 12 mg/kg (suspension) in the male Sprague-Dawley rat. […] For intraperitoneal administration, Compound 200 was formulated as a uniform suspension in CMC (carboxymethylcellulose) at a target concentration of 1 mg/mL and administered at a dose volume of 10 mL/kg. For oral administration, Compound 200 was formulated as a uniform suspension in CMC (carboxymethylcellulose), at a target concentration of 1 mg/mL, administered by gavage, at a dose volume of 10 mL/kg, to the conscious, fasted, male Sprague-Dawley rat.

formalin model = test: Formalin model of pain; assay type: in vivo, rat; settings: both Early Phase and Late Phase, drug 15 min before formalin
Experimental: As outlined above, the formalin model involves injection of a formalin solution intradermally or […]. Injection of formalin solution invokes a biphasic response, and thus provides a model for both nociceptive and inflammatory pain. The formalin model can be used to evaluate the effectiveness of an exemplary TRPA1 inhibitor in the treatment of pain. […] Briefly, the following protocol was followed. Male Holtzmann rats received intraplantar injections of 50 μL of 2% formalin. Paw flinching was detected by an automated sensor detecting movement of a small metal band placed on the injected hind paw. Drug or vehicle was administered approximately 15 minutes prior to the injection of formalin. The animal's response to injection of the irritant was measured by counting flinches per minutes during the Early Phase (the first 5 minutes following injection of formalin), during the Late Phase (approximately 30 minutes after injection of formalin), and during the intervening pain free phase. In FIG. 2, the right most bar for each data set (Early Phase and Late Phase) represents administration of vehicle alone and the left most bar represents administration of gabapentin. […]

[2] = tested on: carrageenan-induced inflammation; test: Carrageenan model of acute inflammatory pain (paw volume); assay type: in vivo, rat; settings: IP, carrageenan injected paw
Experimental: In this study, the drug administered was either a TRPA1 inhibitor or the non-steroidal anti-inflammatory diclofenac. Following administration of both carrageenan and drug or vehicle control, paw volume was measured and used to assess decreased inflammation.

[3] = tested on: BOO model of incontinence; settings: BOO rats, intravesical infusion
Description: Efficacy of the varying doses of TRPA1 inhibitory compound were compared to controls administered excipients alone (sham control). Efficacy was also compared to rats administered a positive control, such as atropine.
Female Sprague Dawley rats were used in these studies. Rats underwent surgical partial bladder outlet obstruction (BOO) or sham surgery. Five weeks after BOO (or sham) surgery, an intravesical catheter was surgically implanted into the dome of the bladder for conducting urodynamic studies. One week after catheter implantation (6 weeks after BOO or sham), urodynamic studies began. […] An analytic balance beneath the wire-bottom animal cage measured the amount of urine voided during continuous cystometry. […]
For each CMG cycle, the following parameters were assessed: infused volume (the amount of saline or drug infused for each CMG cycle); void volume (the amount of urine voided by the animal for each CMG cycle); minimum pressure (minimum pressure during filling); threshold pressure (pressure prior to micturition when bladder pressure begins to rise steeply); average pressure (average pressure during filling and before threshold); maximum pressure; intermicturition interval (time between two subsequent voiding events); urine flow rate index.

[4] = plasma, male Sprague-Dawley rat, intravenous bolus 0.9 mg/kg

T1 sequence (O75762 whole entry K186N): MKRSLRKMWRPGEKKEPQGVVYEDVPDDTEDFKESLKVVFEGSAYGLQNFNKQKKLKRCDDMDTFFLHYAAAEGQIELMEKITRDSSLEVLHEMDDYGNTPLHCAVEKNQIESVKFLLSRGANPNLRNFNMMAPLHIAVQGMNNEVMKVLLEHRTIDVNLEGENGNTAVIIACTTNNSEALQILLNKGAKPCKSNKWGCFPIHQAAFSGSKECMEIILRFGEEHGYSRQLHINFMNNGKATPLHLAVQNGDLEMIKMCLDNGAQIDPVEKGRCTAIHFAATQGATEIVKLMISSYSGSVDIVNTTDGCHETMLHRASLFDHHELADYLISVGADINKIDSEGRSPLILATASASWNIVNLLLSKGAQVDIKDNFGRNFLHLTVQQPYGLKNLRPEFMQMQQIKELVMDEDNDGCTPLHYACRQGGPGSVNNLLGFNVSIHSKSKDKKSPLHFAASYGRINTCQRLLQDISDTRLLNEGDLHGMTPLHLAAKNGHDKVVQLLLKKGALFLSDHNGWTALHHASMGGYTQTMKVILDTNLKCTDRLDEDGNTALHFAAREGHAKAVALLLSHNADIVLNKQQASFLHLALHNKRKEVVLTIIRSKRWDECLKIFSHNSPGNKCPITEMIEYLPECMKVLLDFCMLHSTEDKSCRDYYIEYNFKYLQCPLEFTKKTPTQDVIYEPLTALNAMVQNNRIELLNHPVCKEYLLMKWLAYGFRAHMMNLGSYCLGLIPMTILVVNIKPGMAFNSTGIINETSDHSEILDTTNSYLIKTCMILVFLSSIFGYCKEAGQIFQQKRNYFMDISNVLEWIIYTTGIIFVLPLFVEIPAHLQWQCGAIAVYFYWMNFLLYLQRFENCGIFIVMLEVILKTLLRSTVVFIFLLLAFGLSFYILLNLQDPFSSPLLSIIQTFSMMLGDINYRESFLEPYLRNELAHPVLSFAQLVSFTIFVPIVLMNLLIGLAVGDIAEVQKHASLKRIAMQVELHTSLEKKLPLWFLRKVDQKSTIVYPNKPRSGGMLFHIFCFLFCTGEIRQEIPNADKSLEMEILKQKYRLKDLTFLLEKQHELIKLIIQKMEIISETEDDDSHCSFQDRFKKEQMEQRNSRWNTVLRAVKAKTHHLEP

For `CC(C)c1ccc(NC(=O)Cn2cnc3c2c(=O)n(C)c(=O)n3C)cc1` [Compound 200, 2-(1,3-dimethyl-2,6-dioxo-1,2,3,6-tetrahydropurin-7-yl)-N-(4-isopropylphenyl)acetamide], the IC50 (hTRPA1; Table 2, inward current, read-out: hTRPA1 Patch Inwd IC50) was ≤ 5 µM, the IC50 (hTRPA1; stated in Example 4 (1000 nM=355 ng/mL), read-out: IC50 against TRPA1) was 1 µM and the “selective for TRPA1 over NaV1.2” value (hNaV1.2) was ≥ 25 fold. The IC50 (hNaV1.2; read-out: hNaV1.2 IC50) was ≥ 30 µM, the “selective for TRPA1 over TRPV3” value (hTRPV3) was ≥ 5 fold and the IC50 (hTRPV3; read-out: hTRPV3 P1 inward IC50) was > 10 µM. For the same compound, the bioavailability ([1]; male, Sprague-Dawley, plasma, fasted rat, oral suspension 12 mg/kg) was ~8%, the concentration at 45 min ([1]; male, Sprague-Dawley, plasma, rat, oral 12 mg/kg, 45 min) was ~355 ng/mL and the clearance [1, 4] was 27 mL/min/kg. For the same compound, the half-life [1, 4] was 32 min, the Vd ([1]; plasma, male Sprague-Dawley rat, intravenous bolus 0.9 mg/kg, read-out: volume of distribution) was 1.28 L/kg and the plasma levels ([1]; rat, intraperitoneal 12 mg/kg, 15-60 min) was ~355 ng/mL. For the same compound, the flinches per minute (formalin model) was “substantially reduced”, the “paw volume (inflammation)” value [2] was “decreased” and the maximum bladder pressure [3] was “decreased”. The threshold bladder pressure [3] was “decreased”.
